# B1: Trypsin: Protease from the Pierce Quanticleave protease assay kit II (13564 units/mg) (protein, UniProt P00760 24-246, looked up)
# Serine protease 1: IVGGYTCGANTVPYQVSLNSGYHFCGGSLINSQWVVSAAHCYKSGIQVRLGEDNINVVEGNEQFISASKSIVHPSYNSNTLNNDIMLIKLKSAASLNSRVASISLPTSCASAGTQCLISGWGNTKSSGTSYPDVLKCLKAPILSDSSCKSAYPGQITSNMFCAGYLEGGKDSCQGDSGGPVVCSGKLQGIVSWGSGCAQKNKPGVYTKVCNYVSWIKQTIASN
# What was measured:
# Type in all cases: biochemical
# succinylated casein = test: Protease assay using succinylated casein substrate with TNBSA detection; details: 100 μg succinylated casein, 37° C., 1 hour
# Description: (§1) Assay Conditions. Elastase assay using succinylated elastin: A modified version of the method described in the Pierce Quanticleave™ protease assay kit II (Pierce Chemical Co.) was used for the elastase assay. The assay contained 100 μg of succinylated substrate (gelatin, elastin, or casein) and 50 μl of enzyme sample to be assayed, and the reaction was brought up to a final volume of 150 μl with BupH buffer or 50 mM sodium borate, pH 8.0 (50 mM sodium borate, pH 8.0, is a suitable substitute for BupH buffer). All reactions were prepared in 96-well Falcon 3097 flat-bottom microtiter plates (Beckton Dickinson, N.J.) The reactions were then incubated at 37° C. for 60 min. Fifty microliters of a 0.03% solution of TNBSA was then added to each reaction and left for 20 min at room temperature. The optical density of each reaction was then determined using a Bio-Whittaker microplate reader 2001 (Bio-Whittaker, Walkersville, Md.) at 450 nm. Blank reactions were also prepared which contained buffer and protease, buffer and substrate and buffer only. All sample dilutions were prepared in BupH buffer or 50 mM sodium borate buffer, pH 8.0, as were stock solutions of 1 mg/ml elastase and trypsin.
# (§2) Comparison of Elastase and Trypsin Substrate Affinities. […] and 1 μg/ml of elastase and trypsin were assayed using succinylated elastin, gelatin, and casein substrate. Enzyme dilutions were prepared from a 1 mg/ml stock of trypsin and elastase in BupH buffer or 50 mM sodium borate, pH 8.0. Assays contained 50 μl enzyme and 100 μg succinylated substrate and were made up to a volume of 150 μl with BupH buffer or 50 mM sodium borate buffer, pH 8.0. Digests were incubated at 37° C. for 1 hour. All digests were prepared in duplicate and optical densities were measured at 450 nm. Blank reaction contained buffer/enzyme. Blank reading was subtracted from the final reaction optical density to give corrected absorbance values. Standard deviations are given in parentheses. The activity of elastase varies with substrate in the following order: elastin>casein>gelatin. The activity of trypsin varies with substrate in the following order: gelatin>casein>elastin. Substrate affinity was evaluated by the level of absorbance at 450 nm each protease generated with each substrate.
# [1] = Elastase assay using Suc(Ala)3-nA (SANA); details: room temperature, 20 minutes
# Description: Elastase assay using Suc(Ala)3-nA (SANA). The following method was used for testing PPE (CalBio-chem) activity. A 25 mM stock solution of SANA (Sigma) in dimethyl sulfoxide (Sigma), 1 mg/ml stock solution of elastase in distilled water, and 0.2 M Tris buffer pH 8.0 with 0.1% Triton X-100(Sigma) was prepared. The assay contained 12 μl of SANA and 50 μl of the enzyme sample and was made up to 200 μl with 0.2 M Tris buffer. All reactions were prepared in 96-well Falcon 3097 flat-bottom microtiter plates (Beckton Dickinson) and carried out at room temperature. The optical density of each digest was recorded for 20 min, at 30 second intervals, at 405 nm using a Bio-Whittaker microplate reader 2001 (Bio-Whittaker).
# (§3) Comparison of Succinyl Elastin with SANA. The sensitivity of the succinylated elastin assay was compared to an elastase assay that uses SANA, a synthetic elastase substrate. 50 μl of 1000, 100, 10 and 1 ng/ml elastase was used to digest 100 μg of succinylated elastin and 12 μl of 12 mM SANA. The succinylated elastin digest was carried out at 37° C. for 1 hour. The SANA elastase assay was carried out at room temperature for 20 minutes. Optical densities were measured at 450 nm for succinylated elastin assay and 405 nm for SANA elastase assay. Blank reaction contained buffer/enzyme. Blank reading was subtracted from the final reaction optical density to give corrected absorbance values. Standard deviations are given in parentheses.
# succinylated elastin = test: Protease assay using succinylated elastin substrate with TNBSA detection; details: 37° C., 1 hour; for corrected absorbance at 450 nm, substrate Elastin: 100 μg succinylated elastin
# Description: as §1, §2, §3
# succinylated gelatin = test: Protease assay using succinylated gelatin substrate with TNBSA detection; details: 100 μg succinylated gelatin, 37° C., 1 hour
# Description: as §1, §2
Molecule,"corrected absorbance at 450 nm, substrate Casein (succinylated casein; protease concentration 1)","corrected absorbance at 450 nm, substrate Casein (succinylated casein; protease concentration 10)","corrected optical density at 405 nm, SANA ([1]; elastase 1 ng/ml)","corrected optical density at 405 nm, SANA ([1]; elastase 10 ng/ml)","corrected optical density at 405 nm, SANA ([1]; elastase 100 ng/ml)","corrected optical density at 405 nm, SANA ([1]; elastase 1000 ng/ml)","corrected optical density at 450 nm, Succinylated Elastin (succinylated elastin; elastase 1 ng/ml)","corrected optical density at 450 nm, Succinylated Elastin (succinylated elastin; elastase 10 ng/ml)","corrected optical density at 450 nm, Succinylated Elastin (succinylated elastin; elastase 100 ng/ml)","corrected optical density at 450 nm, Succinylated Elastin (succinylated elastin; elastase 1000 ng/ml)","corrected absorbance at 450 nm, substrate Elastin (succinylated elastin; protease concentration 1)","corrected absorbance at 450 nm, substrate Elastin (succinylated elastin; protease concentration 10)","corrected absorbance at 450 nm, substrate Gelatin (succinylated gelatin; protease concentration 1)","corrected absorbance at 450 nm, substrate Gelatin (succinylated gelatin; protease concentration 10)"
Elastase: Porcine pancreatic elastase (PPE; 297 units/mg) (EC 3.4.21.36) purchased from CalBiochem,0.071,0.28,0,0,0.011 (±0.004),0.129 (±0.026),0.0086 (±0.003),0.01 (±0.001),0.015 (±0.004),0.054 (±0.006),0.085,0.377,0.037,0.120
B1,0.106,0.158,,,,,,,,,0.024,0.049,0.179,0.354

# From US6350586B2, “Method for isolating inhibitors of protease activity” (Long Island Jewish Medical Center, priority 1998, dated 2002)
